{"source": "ChEMBL document CHEMBL2150933", "about": "(J Med Chem, 2012)", "assay_type_in_all_cases": "functional", "key": {"COLO 205 [1]": {"test_system": "COLO 205", "experiment": "Cytotoxicity against human COLO205 cells after 48 hrs by SRB assay", "settings": "COLO 205, 48 h, read-out: pGI50 (converted)"}, "A549 [2]": {"test_system": "A549", "experiment": "Cytotoxicity against human A549 cells after 72 hrs by MTT assay", "settings": "A549, 72 h"}, "MDA-MB-231": {"test_system": "MDA-MB-231", "experiment": "Cytotoxicity against human MDA-MB-231 cells after 48 hrs by SRB assay", "settings": "MDA-MB-231, 48 h, read-out: pGI50 (converted)"}, "BXPC-3": {"test_system": "BXPC-3", "experiment": "Cytotoxicity against human BxPC3 cells after 72 hrs by MTT assay", "settings": "BXPC-3, 72 h"}, "COLO 205 [3]": {"test_system": "COLO 205", "experiment": "Cytotoxicity against human COLO205 cells after 72 hrs by MTT assay", "settings": "COLO 205, 72 h"}, "[4]": {"experiment": "Cytotoxicity against human 786-O cells after 48 hrs by SRB assay", "settings": "786-0, 48 h"}, "A549 [5]": {"test_system": "A549", "experiment": "Cytotoxicity against human A549 cells after 48 hrs by SRB assay", "settings": "A549, 48 h, read-out: pGI50 (converted)"}}, "data": [{"smiles": "CO[C@H](C(=O)C(C)=O)[C@@H]1Cc2cc3cc(O[C@H]4C[C@@H](O[C@H]5C[C@@H](O)[C@H](O)[C@@H](C)O5)[C@H](O)[C@@H](C)O4)c(C)c(O)c3c(O)c2C(=O)[C@H]1O[C@H]1C[C@@H](O[C@H]2C[C@@H](O)[C@H](O)[C@@H](C)O2)[C@H](O)[C@@H](C)O1", "values": [{"measurement": "GI50", "setting": "COLO 205 [1]", "result": 83.2, "unit": "nM"}, {"measurement": "GI50", "setting": "A549 [2]", "result": 300, "unit": "nM"}, {"measurement": "GI50", "setting": "MDA-MB-231", "result": 240, "unit": "nM"}, {"measurement": "GI50", "setting": "BXPC-3", "result": 300, "unit": "nM"}, {"measurement": "GI50", "setting": "COLO 205 [3]", "result": 300, "unit": "nM"}, {"measurement": "GI50", "setting": "[4]", "result": 166, "unit": "nM"}, {"measurement": "GI50", "setting": "A549 [5]", "result": 170, "unit": "nM"}]}]}
